From patent publication US4575550A, “Platinum complexes” (Shionogi & Co., Ltd., priority 1981, dated 1986)

Legend:
Sarcoma 180 tumor cells [1] = experiment: Antitumor activity against Sarcoma-180 (Experiment 4, intravenous for 5 days); type: in vivo, DS mice; conditions: i.v., 5% glucose solution; for ED50: 14400 min
Experimental: (§1) Sarcoma 180 tumor cells (5×10^6 cells) are inoculated to DS mice (6 to 8 mice are employed in each test group) subcutaneously, and a predetermined amount of the test compounds is administered intraperitoneally for 5 days continuously from the next day of the inoculation.
The test was carried out in the same manner as in Experiment 1, wherein the test compounds were administered intravenously for 5 days.
The evaluation was made in the same manner as in Experiment 1.

[2] = tested on: Leukemia L1210 ascites cells; experiment: Antitumor activity against L1210 (Experiment 2, intraperitoneal); type: in vivo, BDF1 mice; conditions: i.p.
Experimental: Leukemia L1210 ascites cells (10^5 cells) in mice are intraperitoneally inoculated to BDF1 mice (4 to 10 mice are employed in each test group), and on the next day a predetermined amount of the test compounds is administered intraperitoneally. The solvent for injection consists of 0.9% NaCl, 0.4% Polysorbate 80, 0.5% CMC, and 0.5% benzyl alcohol suspension.
From the average survival days (a) in the test group and those (b) of the untreated control group, the increase of lifespan (ILS) is calculated according to the following expression. [formula]

Sarcoma 180 tumor cells [3] = experiment: Antitumor activity against Sarcoma-180 (Experiment 1, intraperitoneal for 5 days); type: in vivo, DS mice; conditions: i.p.; for ED50 (effective dose which inhibits the growth of tumors by 50%): 14400 min
Experimental: as §1

kidney = experiment: Nephro-toxicity (Experiment 3, once intraperitoneally); type: in vivo, male Sprague Dawley rats; parameters: key: .uparw.: increase; slight increase; .dwnarw.: decrease; ±: no change; conditions: once i.p., (A) 10 mg/kg, (B) 5 mg/kg, solvent 1: 5% glucose
Source text: Seven weeks-old male Sprague Dawley rats are separately accommodated in metabolic cages of stainless steel, and solid feed (Clea Japan, INC., CA-1 for breeding) and water are given so that they can take them freely. They are adapted for 3 days and then the test compounds are once administered to rats intraperitoneally at 10:00 a.m. […] The urine excreted during a period of 10 a.m. on the day of administration to 10 a.m. on the next day is defined as urine of the first day; on the urine of the 0-4th days the volume of urine excreted, creatinine, osmotic pressure, urinary enzyme N-acetyl-β-D-glucosaminidase (NAG), and lysozyme (LEZ) are measured, and further urinary protein and urinary sugar are examined with Labstix®. In the morning on the 5th day the rats are anatomized under anesthesia with Ouropan-Soda®(Shionogi & Co., Ltd.; Hexobarbital sodium), and the blood and pathologic specimens of the kidney and the liver are collected in order to determine the level of plasma urea nitrogen and creatinine, and osmotic pressure.

[4] = dose 2 × 1 (dose unit not given)
[5] = dose 5 × 1 (dose unit not given)
[6] = dose 10 × 1 (dose unit not given)
[7] = dose 20 × 1 (dose unit not given)
[8] = 0.9% NaCl, 0.4% Polysorbate 80, 0.5% CMC, 0.5% benzyl alcohol suspension

Molecule | CI (curative index) (Sarcoma 180 tumor cells [1]) | LD50 (Sarcoma 180 tumor cells [1]) [mg/kg] | ED50 (Sarcoma 180 tumor cells [1]) [mg/kg] | increase of lifespan (ILS) [2, 4] [%] | increase of lifespan (ILS) [2, 5] [%] | increase of lifespan (ILS) [2, 6] [%] | increase of lifespan (ILS) [2, 7] [%] | ED50 (effective dose which inhibits the growth of tumors by 50%) (Sarcoma 180 tumor cells [3]; [8]) [mg/kg] | ED50 (effective dose which inhibits the growth of tumors by 50%) (Sarcoma 180 tumor cells [3]; solvent 5% glucose solution) [mg/kg] | other results
Glycerato-cis-diammineplatinum(II) | 4.2 | 186.6 | 44 | – | – | – | – | – | – | –
N.N.[Cl][Pt][Cl] [(B), Cisplatin, reference compound] | – | – | 4.5 | 11 | 29 | > 84 | -26 | 7.3 | 5.8 | –
N.N.O=C1C[O][Pt][O]1 [C, Glycolato-cis-diammineplatinum(II)] | – | – | 18.7 | – | – | – | – | – | – | –
N.N.O=C1COCC(=O)[O][Pt][O]1 [D, Diglycolato-cis-diammineplatinum(II)] | 3.3 | 80.0 | 24.1 | – | – | – | – | – | – | –
Glucuronato-cis-diammineplatinum(II) [(A)] | 2.9 | 186 | 63.4 | 4 | 12 | 14 | > 55 | 34 | 33.4 | CI (curative index) (Sarcoma 180 tumor cells [3]; [8]): 3.3; LD50 (50% lethal dose) (Sarcoma 180 tumor cells [3]; [8]): 113.5 mg/kg; CI (curative index) (Sarcoma 180 tumor cells [3]; solvent 5% glucose solution): 2.8; LD50 (50% lethal dose) (Sarcoma 180 tumor cells [3]; solvent 5% glucose solution): 93.4 mg/kg; Body Weight (g) (kidney): ±; Creatinine Clearance (kidney): ±; Excrement of Creatinine (mg/24 hrs./100 g BW) (kidney): ±; Excrement of Solute (mOsm/24 hrs./100 g BW) (kidney): ±; Kidney Weight (kidney): ±; LEZ (urinary lysozyme) (kidney): ±; Liver Weight (kidney): ±; Osmotic Pressure of Urine (mOsm/kg) (kidney): ±; Urinary Glucose (kidney): ±; Urinary Protein (kidney): ±; Volume of Urine (ml/24 hrs.) (kidney): ±; Plasma Creatinine (kidney; 5th day): ±; Plasma Osmotic Pressure (kidney; 5th day): ±; Plasma Urea Nitrogen (kidney; 5th day): ±
